This assay addresses T1, p38a activated, mitogen-activated protein kinase-activated protein kinase 2 (MAPKAP-K2 or MK2) enzyme (Homo sapiens, UniProt P49137).
T1 construct: purchased Invitrogen PV3317
The assay is described as follows: MK2 OMNIA biochemical assay (AssayQuant continuous-read kinase assay). To be noted: [MK-2]=0.05 nM, [ATP]=100 μM, [AQT0425]=10 μM. Summed up:
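Continuous fluorescence read (ex 360/em 485) of p38a-activated MK2 phosphorylating Sox-conjugated peptide AQT0425 in 50 mM HEPES pH 7.5, 10 mM MgCl2, 1 mM DTT; reads every 71 s for 240 min at room temperature. IC50 from initial linear slopes; apparent Kinact from single-exponential Vobs fits.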
T1 sequence (P49137 whole entry): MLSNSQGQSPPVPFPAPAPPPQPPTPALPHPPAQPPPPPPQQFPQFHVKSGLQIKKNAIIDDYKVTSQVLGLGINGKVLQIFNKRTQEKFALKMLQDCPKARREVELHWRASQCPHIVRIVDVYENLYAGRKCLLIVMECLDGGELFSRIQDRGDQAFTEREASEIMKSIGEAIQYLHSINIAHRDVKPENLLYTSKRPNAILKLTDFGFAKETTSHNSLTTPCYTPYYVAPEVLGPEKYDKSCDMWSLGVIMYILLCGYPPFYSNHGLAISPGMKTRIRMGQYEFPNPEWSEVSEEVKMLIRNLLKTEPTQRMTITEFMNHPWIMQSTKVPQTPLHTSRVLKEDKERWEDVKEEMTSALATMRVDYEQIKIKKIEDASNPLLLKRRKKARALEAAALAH
`C[C@@H]1COc2c(sc3ccc4nc(-c5ccc(C6CN(CCN7CCN(c8ccc(C9CCC(=O)NC9=O)cc8)CC7)C6)cc5)ccc4c23)C(=O)N1` (stereo partly drawn) [Ex 33, 3-(4-(4-(2-(3-(4-((R)-10-Methyl-8-oxo-8,9,10,11-tetrahydro-[1,4]oxazepino[7′,6′:4,5]thieno[3,2-f]quinolin-3-yl)phenyl)azetidin-1-yl)ethyl)piperazin-1-yl)phenyl)piperidine-2,6-dione]: the IC50 is less than 150 nM. The value for `C[C@@H]1CNc2c(sc3ccc4nc(-c5ccc(C(=O)N[C@H]6CC[C@H](CN7CCN(c8ccc(C9CCC(=O)NC9=O)cc8)CC7)CC6)cc5F)ccc4c23)C(=O)N1` (stereo partly drawn) [Ex 9, N-(trans-4-((4-(4-(2,6-Dioxopiperidin-3-yl)phenyl)piperazin-1-yl)methyl)cyclohexyl)-3-fluoro-4-((R)-10-methyl-8-oxo-9,10,11,12-tetrahydro-8H-[1,4]diazepino[5′,6′:4,5]thieno[3,2-f]quinolin-3-yl)benzamide] was less than 150 nM. On to `C[C@@H]1CNc2c(sc3ccc4nc(-c5ccc(N6CCC(CN7CCN(c8ccc(C9CCC(=O)NC9=O)cc8)CC7)CC6)cc5)ccc4c23)C(=O)N1` (stereo partly drawn) [Ex 38, 3-(4-(4-((1-(4-((R)-10-Methyl-8-oxo-9,10,11,12-tetrahydro-8H-[1,4]diazepino[5′,6′:4,5]thieno[3,2-f]quinolin-3-yl)phenyl)piperidin-4-yl)methyl)piperazin-1-yl)phenyl)piperidine-2,6-dione], for which the IC50 was 151 to 500 nM. For the compound `C[C@@H]1CNc2c(sc3ccc4nc(-c5ccc(N6CC7CC(C6)N7CCN6CCN(c7ccc(C8CCC(=O)NC8=O)cc7)CC6)cc5)ccc4c23)C(=O)N1` (stereo partly drawn) [Ex 24, 3-(4-(4-(2-(3-(4-((R)-10-Methyl-8-oxo-9,10,11,12-tetrahydro-8H-[1,4]diazepino[5′,6′:4,5]thieno[3,2-f]quinolin-3-yl)phenyl)-3,6-diazabicyclo[3.1.1]heptan-6-yl)ethyl)piperazin-1-yl)phenyl)piperidine-2,6-dione], the IC50 is less than 150 nM.

Consider `C[C@@H]1CNc2c(sc3ccc4nc(-c5ccc(N6CCN(CCN7CCC(c8ccc(C9CCC(=O)NC9=O)cc8)CC7)CC6)cc5)ccc4c23)C(=O)N1` (stereo partly drawn) [Ex 20, 3-(4-(1-(2-(4-(4-((R)-10-Methyl-8-oxo-9,10,11,12-tetrahydro-8H-[1,4]diazepino[5′,6′:4,5]thieno[3,2-f]quinolin-3-yl)phenyl)piperazin-1-yl)ethyl)piperidin-4-yl)phenyl)piperidine-2,6-dione], for which the IC50 is less than 150 nM. For `C[C@@H]1CNc2c(sc3ccc4nc(-c5ccc(C6CCN(CCN7CCN(c8ccc(C9CCC(=O)NC9=O)cc8)CC7)CC6)cc5)ccc4c23)C(=O)N1` (stereo partly drawn) [Ex 27, 3-(4-(4-(2-(4-(4-((R)-10-Methyl-8-oxo-9,10,11,12-tetrahydro-8H-[1,4]diazepino[5′,6′:4,5]thieno[3,2-f]quinolin-3-yl)phenyl)piperidin-1-yl)ethyl)piperazin-1-yl)phenyl)piperidine-2,6-dione], the IC50 is less than 150 nM. `C[C@@H]1CNc2c(sc3ccc4nc(-c5cccc(N6CC7CC(C6)N7CCN6CCN(c7ccc8c(C9CCC(=O)NC9=O)nn(C)c8c7)CC6)c5)ccc4c23)C(=O)N1` (stereo partly drawn) [Ex 15, 3-(1-Methyl-6-(4-(2-(3-(3-((R)-10-methyl-8-oxo-9,10,11,12-tetrahydro-8H-[1,4]diazepino[5′,6′:4,5]thieno[3,2-f]quinolin-3-yl)phenyl)-3,6-diazabicyclo[3.1.1]heptan-6-yl)ethyl)piperazin-1-yl)-1H-indazol-3-yl)piperidine-2,6-dione]: the IC50 was less than 150 nM.

Values taken from patent US20260109708A1, “COMPOUNDS AND COMPOSITIONS USEFUL AS DEGRADERS OF MK2 KINASE” (Celgene Corporation, priority 2023, published 2026).
